Measurements from US4690822A, “Novel drug carrier and pharmaceutical preparation comprising the same” (Fujisawa Pharmaceutical Co., Ltd., priority 1985, dated 1987).

Tests used:
[1] = Solubility of FK 235 in water; type: physicochemical
[2] = fasting state; S.E. 0.7 min.; cited from earlier work

| solubility [1] [µg/mL] | SMILES | half-time of the passage of fluid through pylorus [2] [min] |
| --- | --- | --- |
| < 2 | COC(=O)C1=C(C#N)NC(C)=C(C(=O)OC(C)C)C1c1cccc([N+](=O)[O-])c1 (centres unmarked) [FK 235, Isopropyl 6-cyano-5-methoxycarbonyl-2-methyl-4-(3-nitrophenyl)-1,4-dihydropyridine-3-carboxylate] |  |
|  | O [water] | 13.1 |
